These results are taken from patent US9783519B2, “Palladium/silver co-catalyzed tandem reactions synthesis of phenylacetophenone derivatives by oxabenzonorbornadienes with terminal alkynes and their anti-tumor or anti-cancer activities” (Hong Kong Baptist University, priority 2015, dated 2017).

A word on the IC50: it is the concentration needed to halve the response being measured. For orientation: melting point means the temperature of the solid-liquid transition.

Series [1] has as its system KYSE-150, MKN-45, DLD-1, Hep G2. The series is described as follows: MTT cytotoxicity assay, summary over the test cell lines. The following applies: Homo sapiens; on different (not all) cell lines; summary of Table 6; read-out: IC50, inhibitory effect on different cell lines. It is filed as cell-based. How it is done: (§1) Cytotoxic activities of all compounds were evaluated by MTT assay using KYSE-150 (human oesophagus carcinoma), MKN-45 (human gastric aednocarcinoma), DLD-1 (human colorectal carcinoma cell line), Hep G2 (human hepatocellular carcinoma). […] 3ag, 3al, 3an, 3ea and 3ha also have the same inhibitory effect on different cell lines with IC50 value lower than 10 μM. Thus, except 3ac, 3ad, 3ae, 3ah, and 3ab, the other compounds all exert definitely anti-cancer effect.
(§2) In this study, all compounds were dissolved in dimethyl sulfoxide (DMSO) to make stock solutions and further diluted in culture medium for this experiment. Human cancer cell lines, including one gastric adenocarcinoma cell line (MKN-45), one colon carcinoma cell line (DLD-1), one esophageal carcinoma cell line (KYSE-150) and one hepatocellular carcinoma cell line (HepG2) were cultured in RPMI 1640 or DMEM medium, containing 10% fetal bovine serum and 1% antibiotics (Penicillin and strep). The cell lines were cultured at 37° C. in a humidified environment containing 5% CO2. To determine the effects of the compounds on cell viability, a standard colorimetric 3-(4,5-dimethylthiazol-2-yl)-2,5-diphenyltetrazolium bromide (MTT) assay was used to test the cell number. Cells were seeded in a 96-well plate (4×10^3 cells/well) and allowed to attach overnight. After the recovery, cells were treated with 1.56, 3.125, 6.25, 12.5, 25, 50 μM of compounds in culture medium for 48 hrs. Then, 20 μL of MTT (5 mg/mL stock in PBS) per well was added into the medium (200 μL) and incubated for 4 hrs at 37° C. Finally, the culture medium was removed and 200 μL of DMSO were added to dissolve the purple formazan crystals. Absorbance of the solution was measured using microplate reader spectrophotometer (Bio-Rad Laboratories, Inc., Hercules, Calif.) at a wavelength of 570 nm.
(Tetrazolium assays rely on reduction of a dye to a coloured formazan, in cell work by metabolically active cells.)

Series [2] concerns DLD-1 (human colorectal carcinoma cell line). The series is described as follows: MTT cytotoxicity assay, DLD-1. The settings on record: 48 hrs treatment. It is filed as cell-based. On the procedure:
as §1, §2

The test system of series [3] is KYSE-150 cells. Description: Wound healing assay. It is filed as cell-based, human. The following applies: 10 μM, 48 h. On the procedure: Original magnification, 5×.
Further, wound-healing assay was used to test whether those novel compounds could affect cell motility.
A wound-healing assay was performed as follows: cells were seeded in 12 wells plate at 50% confluence in completed medium. After 24 hrs seeding, the monolayer was wounded by scoring with a sterile plastic tip (1 mL), then washed several times with medium to remove cell debris and then incubated in conditioned medium in the absence or presence of tested compounds for various periods of time up to 48 h. […] Cell migration into the wound surface was monitored by Olympus IX71 microscopy and digitally photographed.

In series [4] the test system is MKN-45 (human gastric aednocarcinoma). Description: MTT cytotoxicity assay, MKN-45. It is filed as cell-based. The following applies: 48 hrs treatment. How it is done:
as §1, §2

Series [5] has as its system Hep G2 (human hepatocellular carcinoma). Description: MTT cytotoxicity assay, Hep G2. It is filed as cell-based. The settings on record: HepG2, 48 hrs treatment. How it is done: as §1, §2
In series [6] the test system is KYSE-150 cells. The series is described as follows: Wound healing assay. It is filed as cell-based, human. The following applies: 10 μM.
The subject of series [7] is KYSE-150 (human oesophagus carcinoma). The series is described as follows: MTT cytotoxicity assay, KYSE-150. It is filed as cell-based. The settings on record: 48 hrs treatment. On the procedure: as §1, §2

Take `O=C(Cc1ccc2cc(Br)c(Br)cc2c1)c1ccccc1` [Compound 3ea, 2-(6,7-dibromonaphthalen-2-yl)-1-phenylethanone]: the melting point was in the range of 152 to 154 °C. Also, in series [1], the IC50 was < 10 µM. Besides, in series [2], the IC50 was 2.7 µM. Besides, the “cell migration into the wound” value with KYSE-150 cells [3] is reported as “did not migrate into the wound”. The compound also gave an IC50 in series [4] of 12.1 µM. In series [5], the IC50 came to 16.1 µM. The “viability of KYSE-150 cells compared to controls” value in the series with KYSE-150 cells [6] is recorded as “did not alter the viability”. The IC50 in series [7] was found to be 2.38 µM.
